Reference: US20110028715A1, “NOVEL ADENINE COMPOUND” (priority 2007, published 2011)
pEC50: −log10 of the molar value. Like-named read-outs stand apart in the source and are kept apart here. Marks after values point to notes of the source that are not given here.

Legend:
human TLR7 = molecular target: T1, human TLR7 (Homo sapiens, UniProt Q9NYK1); assay: Human TLR7 reporter assay (NF-kB-SEAP, HEK 293 cells); format: cell-based; conditions: read-out: human TLR7 binding activity EC50
T1 construct: expressed in transfected cells; host or cells: HEK 293 (hTLR7/seap-293)
T1 sequence (Q9NYK1 27-1049): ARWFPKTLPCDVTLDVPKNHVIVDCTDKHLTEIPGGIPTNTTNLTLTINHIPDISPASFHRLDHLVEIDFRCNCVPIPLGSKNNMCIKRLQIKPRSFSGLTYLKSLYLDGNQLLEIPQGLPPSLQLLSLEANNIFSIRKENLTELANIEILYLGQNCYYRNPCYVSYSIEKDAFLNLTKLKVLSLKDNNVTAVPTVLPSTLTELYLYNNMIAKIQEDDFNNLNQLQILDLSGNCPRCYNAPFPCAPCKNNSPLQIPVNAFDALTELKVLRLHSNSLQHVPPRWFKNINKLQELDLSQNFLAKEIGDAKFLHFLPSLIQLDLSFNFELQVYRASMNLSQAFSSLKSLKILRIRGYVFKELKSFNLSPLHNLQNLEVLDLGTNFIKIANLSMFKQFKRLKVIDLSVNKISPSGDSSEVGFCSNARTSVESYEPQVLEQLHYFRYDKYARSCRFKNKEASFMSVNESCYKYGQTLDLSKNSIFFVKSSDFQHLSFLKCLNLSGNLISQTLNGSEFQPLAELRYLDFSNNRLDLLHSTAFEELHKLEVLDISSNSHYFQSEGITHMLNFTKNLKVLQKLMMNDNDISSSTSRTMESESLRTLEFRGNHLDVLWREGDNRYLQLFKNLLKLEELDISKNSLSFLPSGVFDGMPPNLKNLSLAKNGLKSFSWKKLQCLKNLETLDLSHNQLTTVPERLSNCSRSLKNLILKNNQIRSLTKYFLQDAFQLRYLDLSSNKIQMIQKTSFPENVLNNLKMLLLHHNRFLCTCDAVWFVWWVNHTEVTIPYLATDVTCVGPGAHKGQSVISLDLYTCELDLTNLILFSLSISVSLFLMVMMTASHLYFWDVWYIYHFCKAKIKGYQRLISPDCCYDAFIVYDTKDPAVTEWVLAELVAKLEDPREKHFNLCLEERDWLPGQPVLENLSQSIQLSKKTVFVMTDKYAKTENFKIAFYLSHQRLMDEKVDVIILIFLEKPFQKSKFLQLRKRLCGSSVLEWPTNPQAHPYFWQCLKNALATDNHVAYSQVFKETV
Experimental: HEK 293 cells, to which human TLR7 or rat TLR7 plasmid and reporter plasmid (NF-kB-SEAP) were stably introduced, were suspended in DMEM medium (10% FBS, 1% NEAA, 10 ug/mL blastocidin S HCl, 100 ug/mL Zeocin), and seeded into a 96-well plate in an amount of 90 μl/well (hTLR7/seap-293: 20,000 cells/well, rTLR7/seap-293: 25,000 cells/well).
A test compound (DMSO stock solution (2 μl) was diluted into 100-fold with the medium (200 μl)) was added into the cells seeded in the 96-well plate in an amount of 10 μl/well (final concentration: 1 nM to 10 μM, common ratio: 3). The side of the plate was lightly patted for stiffing the content of the plate, and the plate was incubated for 20 hours in a CO2 incubator. To the cells that were stimulated with a test compound was added a substrate for reporter assay (substrate for SEAP, pNPP) in an amount of 50 μl/well. The minute later after the addition of the substrate, the solution for reaction quenching (4N NaOH) was added to the plate in an amount of ? 50 μl/well in order to quench the enzyme reaction. A top seal A was applied to the plate, and the absorbance at 405 nm was measured by a microplate reader.
In a similar manner to Example 85, the following compounds were tested.

IFN-α = IFN-α production inducing activity in mice (plasma IFN-α by L929/2-5AS-Luc bioassay); format: in vivo, B6C3F1 mice; conditions: 3 hours after 1 mg/kg intravenously via tail vein, mean ± standard deviation (n = 3)
Experimental: A test compound was administered to B6C3F1 mice (Charles River Japan, Inc.) via tail vein at the dose of 1 mg/kg intravenously. After 3 hours, total blood was collected into a sample tube containing heparin. Plasma was prepared from total blood after centrifugation (3,000 rpm, 10 min, at room temperature) and stored at −20° C.
Murine fibroblasts (L929/2-5AS-Luc), which constitutively expressed luciferase gene in which the promoter region for 2′-5′-oligoadenylate synthase was cloned, was seeded into 96-well plate at 4×10^4 cells/well, and cultured for overnight with diluted plasma or mouse IFN-α. After Luclite (Perkin Elmer) was added to the plate, the luciferase activity was measured with TopCount (Perkin Elmer).
The concentration of IFN-α in plasma was calculated by linear regression of logarithmic transformed concentration of mouse IFN-α and the luciferase activity.

[1] = Table 6, tested in a similar manner to Example 85
[2] = Table 1, HEK 293 hTLR7/NF-kB-SEAP reporter, 20 hours incubation

Row | SMILES | pEC50 (human TLR7; [1]) | pEC50 (human TLR7; [2]) | further results
1 | COCCOc1nc(N)c2[nH]c(=O)n(Cc3ccc(OCC(C)(C)CN(C)C)nc3)c2n1 [Example 110, 6-Amino-9-[6-(3-dimethylamino-2,2-dimethylpropoxy)pyridin-3-ylmethyl]-2-(2-methoxyethoxy)-7,9-dihydropurin-8-one] | 7.78 |  | 
2 | CCCCOc1nc(N)c2[nH]c(=O)n(Cc3ccc(CN4CCCCC4)cc3)c2n1 [Example 2, 6-Amino-2-butoxy-9-(4-piperidin-1-ylmethylbenzyl)-7,9-dihydropurin-8-one] |  | 9.05 | 
3 | CCCCOc1nc(N)c2[nH]c(=O)n(Cc3ccc(CN4CCC(N(C)C)C4)cc3)c2n1 (centres unmarked) [Example 5, 6-Amino-2-butoxy-9-[4-(3-dimethylaminopyrrolidin-1-ylmethyl)benzyl]-7,9-dihydropurin-8-one] |  | 8.57 | 
4 | COCCOc1nc(N)c2[nH]c(=O)n(Cc3ccc(CN4CCC(Oc5ccccc5)CC4)cc3)c2n1 [Example 13, 6-Amino-2-(2-methoxyethoxy)-9-[4-(4-phenoxypiperidin-1-ylmethyl)benzyl]-7,9-dihydropurin-8-one] |  | 7.73 | 
5 | CCOc1nc(N)c2[nH]c(=O)n(Cc3ccc(CN4CCOCC4)cc3)c2n1 [Example 68, 6-Amino-2-ethoxy-9-(4-morpholin-4-ylmethylbenzyl)-7,9-dihydropurin-8-one] |  | 8.26 | 
6 | COCCOc1nc(N)c2[nH]c(=O)n(Cc3cnc(N4CCN(C)CC4)c(Cl)c3)c2n1 [Example 105, 6-Amino-9-[5-chloro-6-(4-methylpiperazin-1-yl)pyridin-3-ylmethyl]-2-(2-methoxyethoxy)-7,9-dihydropurin-8-one] | 8.48 |  | 
7 | CCCCNc1nc(N)c2[nH]c(=O)n(Cc3ccc(CN4CCCCC4)cc3)c2n1 [Example 29, 6-Amino-2-butylamino-9-(4-piperidin-1-ylmethylbenzyl)-7,9-dihydropurin-8-one] |  | 8.12 | 
8 | COCCOc1nc(N)c2[nH]c(=O)n(Cc3ccc(CN4CCCCC4)cc3)c2n1 [Example 10, 6-Amino-2-(2-methoxyethoxy)-9-(4-piperidin-1-ylmethylbenzyl)-7,9-dihydropurin-8-one] |  |  | Mouse IFN-α (IFN-α): 7.3 ± 1.6 IU/mL
9 | CCCCOc1nc(N)c2[nH]c(=O)n(Cc3ccc(CN4CCN(C(=O)CN(C)C)CC4)cc3)c2n1 [Example 94, 6-Amino-2-butoxy-9-{4-[4-(2-dimethylaminoacetyl)piperazin-1-ylmethyl]benzyl}-7,9-dihydropurin-8-one] | 8.60 |  | 
10 | CCCCOc1nc(N)c2[nH]c(=O)n(Cc3ccc(CN4CCC(N(C)C)CC4)cc3)c2n1 [Example 4, 6-Amino-2-butoxy-9-[4-(4-dimethylaminopiperidin-1-ylmethyl)benzyl]-7,9-dihydropurin-8-one] |  | 8.60 | 
11 | Nc1nc(OCCCC(F)(F)F)nc2c1[nH]c(=O)n2Cc1ccc(CN2CCOCC2)cc1 [Example 23, 6-Amino-9-(4-morpholin-4-ylmethylbenzyl)-2-(4,4,4-trifluorobutoxy)-7,9-dihydropurin-8-one] |  | 7.83 | 
12 | COCCOc1nc(N)c2[nH]c(=O)n(Cc3cnc(OCCN(C)C)c(Cl)c3)c2n1 [Example 118, 6-Amino-9-[5-chloro-6-(2-dimethylaminoethoxy)pyridin-3-ylmethyl]-2-(2-methoxyethoxy)-7,9-dihydropurin-8-one] | 7.85 |  | 
13 | CCCCNc1nc(N)c2[nH]c(=O)n(Cc3cnc(OCCN(C)C)c(Cl)c3)c2n1 [Example 58, 6-Amino-2-butylamino-9-[5-chloro-6-(2-dimethylaminoethoxy)pyridin-3-ylmethyl]-7,9-dihydropurin-8-one] |  | 8.43 | 
14 | CCCCNc1nc(N)c2[nH]c(=O)n(Cc3ccc(OCCCN(C)C)nc3)c2n1 [Example 116, 6-Amino-2-butylamino-9-[6-(3-dimethylaminopropoxy)pyridin-3-ylmethyl]-7,9-dihydropurin-8-one] | 7.71 |  | 
15 | COCCOc1nc(N)c2[nH]c(=O)n(Cc3ccc(N4CCN(C)CC4)nc3)c2n1 [Example 42, 6-Amino-2-(2-methoxyethoxy)-9-[6-(4-methylpiperazin-1-yl)pyridin-3-ylmethyl]-7,9-dihydropurin-8-one] |  |  | Mouse IFN-α (IFN-α): 30.0 ± 7.3 IU/mL
16 | CCCCOc1nc(N)c2[nH]c(=O)n(Cc3ccc(OCCCN(C)C)cc3)c2n1 [Example 37, 6-Amino-2-butoxy-9-[4-(3-dimethylaminopropoxy)benzyl]-7,9-dihydropurin-8-one] |  | 8.96 | 
17 | COCCOc1nc(N)c2[nH]c(=O)n(Cc3cnc(OC4CCN(C)CC4)c(Cl)c3)c2n1 [Example 123, 6-Amino-9-[5-chloro-6-(1-methylpiperidin-4-yloxy)pyridin-3-ylmethyl]-2-(2-methoxyethoxy)-7,9-dihydropurin-8-one] | 8.16 |  | 
18 | CCCCNc1nc(N)c2[nH]c(=O)n(Cc3ccc(OCCN(C)C)nc3)c2n1 [Example 54, 6-Amino-2-butylamino-9-[6-(2-dimethylaminoethoxy)pyridin-3-ylmethyl]-7,9-dihydropurin-8-one] |  |  | Mouse IFN-α (IFN-α): 53.6 ± 6.5^a) IU/mL
19 | CCCCOc1nc(N)c2nc(O)n(Cc3ccc(CN4CCOCC4)cc3)c2n1 [Example 1, 6-Amino-2-butoxy-9-(4-morpholin-4-ylmethylbenzyl)-7,9-dihydropurin-8-one] |  | 8.14 | 
20 | CCCCOc1nc(N)c2[nH]c(=O)n(Cc3ccc(CN4CCN(C)CC4)cc3)c2n1 [Example 3, 6-Amino-2-butoxy-9-[4-(4-methylpiperazin-1-ylmethyl)benzyl]-7,9-dihydropurin-8-one] |  | 8.74 | 
21 | CCCCOc1nc(N)c2[nH]c(=O)n(Cc3ccc(N(C)CCN(C)C)nc3)c2n1 [Example 104, 6-Amino-2-butoxy-9-{6-[(2-dimethylaminoethyl)methylamino]pyridin-3-ylmethyl}-7,9-dihydropurin-8-one] | 8.28 |  | 
22 | CCCCNc1nc(N)c2[nH]c(=O)n(Cc3cnc(N4CCN(C)CC4)c(Cl)c3)c2n1 [Example 56, 6-Amino-2-butylamino-9-[5-chloro-6-(4-methylpiperazin-1-yl)pyridin-3-ylmethyl]-7,9-dihydropurin-8-one] |  | 8.89 | 
23 | COCCOc1nc(N)c2[nH]c(=O)n(Cc3cnc(OCC(C)(C)CN(C)C)c(Cl)c3)c2n1 [Example 120, 6-Amino-9-[5-chloro-6-(3-dimethylamino-2,2-dimethylpropoxy)pyridin-3-ylmethyl]-2-(2-methoxyethoxy)-7,9-dihydropurin-8-one] | 8.43 |  | 
